Each structure is given as a SMILES string. pIC50: −log10 of the molar value.

A short description of test [1]: Growth inhibition of human RCC4/VHL cells after 4 days by XTT assay. In kind it is functional, cell-based. Particulars: 96 h.
Test [2] in a line: Selectivity ratio IC50 for human RCC4/VHL cells to IC50 for human RCC4 cells. In kind it is functional.
Test [3] in a line: Growth inhibition of human RCC4 cells after 4 days by XTT assay. In kind it is functional, cell-based. Particulars: RCC4, 96 h; for pIC50: read-out: IC50; for IC50: read-out: pIC50 (converted).

Turning to `Cc1cccc(Nc2nc(-c3ccnc(-c4cn(Cc5ccccc5)nn4)c3)cs2)c1`, in test [1], the pIC50 is 4.85. Besides, the “Ratio IC50” value in test [2] is given as 6.7. In test [3], the pIC50 was 5.68 and the IC50 is 2.14 µM.
Regarding `O=[N+]([O-])c1ccccc1Nc1nc(-c2ccncc2)cs1`, the IC50 in test [3] is 40.7 µM.
Take `Cc1cccc(N(C)c2nc(-c3ccncc3)cs2)c1`: the IC50 in test [3] is 28.2 µM.
Consider `Cc1cccc(Nc2nc(-c3ccnc(-c4ccncc4)c3)cs2)c1`, for which the pIC50 in test [1] is 4.42; in test [3], 4.54. In addition, the “Ratio IC50” value in test [2] came to 1.3. For the same compound, the IC50 in test [3] was 29.5 µM.
For `C#Cc1cnccc1-c1csc(Nc2cccc(C)c2)n1`, the IC50 in test [3] was 1.38 µM.
In test [1], `Cc1cccc(Nc2nc(-c3c(C)nc4ccccn34)cs2)c1` gave a negative logarithm of the IC50 (pIC50) of 4.53. The “Ratio IC50” value in test [2] came out at 3.1. In test [3], the pIC50 is 5.02 and the IC50 is 9.55 µM.
`CCc1cc(-c2csc(Nc3cccc(C)c3)n2)ccn1`: in test [3], the IC50 was 6.46 µM.
As to `Cc1ccc(Nc2nc(-c3ccncc3)cs2)cc1O`, the IC50 in test [3] was 12 µM.
Take `Cc1cccc(Nc2nc(-c3ccncc3-c3ccc(S(=O)(=O)NC(C)(C)C)cc3)cs2)c1`: in test [1], the pIC50 was 4.65. Further, the “Ratio IC50” value in test [2] was 5. In addition, in test [3], the pIC50 was 5.35 and the IC50 is 4.57 µM.
Regarding `Cc1cccc(Nc2nc(-c3ccncc3)c(CN3CCOCC3)s2)c1`, the IC50 in test [3] was 2.51 µM.
On to `Cc1cccc(Nc2nc(-c3ccnc(NCCN4CCOCC4)c3)cs2)c1`, for which the pIC50 in test [1] was 5.10; in test [3] it was 5.43. Also, the “Ratio IC50” value in test [2] worked out at 2.2. Also, the IC50 in test [3] is 3.72 µM.
On to `Cc1cc(Nc2nc(-c3ccncc3)cs2)ccc1O`, for which the IC50 in test [3] is 70.8 µM.
For `Cc1cccc(Nc2nc(-c3ccnc4ccccc34)cs2)c1`, the figures for the pIC50 in test [1] and in test [3] were 4.70 and 4.91, respectively. Also, the “Ratio IC50” value in test [2] worked out at 1.6. The IC50 in test [3] was 12.3 µM.
Taken in the same sequence, the figures for `Cc1cccc(Nc2nc(-c3ccncc3C#CCCO)cs2)c1` were 5.55, 5.96, 2.5 and 1.1 µM.
Take `Cc1cccc(Nc2nc(-c3ccnc(Cl)c3)cs2)c1`: in test [3], the IC50 was 2.24 µM.
`Cc1cccc(Nc2nc(-c3ccncc3)co2)c1` showed a negative logarithm of the IC50 (pIC50) in test [1] below 4.40. In addition, in test [3], the pIC50 was below 4.40 and the IC50 was 40.7 µM.
As for `CC(=O)c1ccc(-c2cc(-c3csc(Nc4cccc(C)c4)n3)ccn2)cc1`, in test [1], the pIC50 was 4.48. Besides, the “Ratio IC50” value in test [2] was found to be 0.9. In test [3], the pIC50 was 4.41 and the IC50 is 38.9 µM.
On to `Fc1cccc(Nc2nc(-c3ccncc3)cs2)c1`, for which the IC50 in test [3] is 40.7 µM.
Turning to `Cc1cccc(Nc2nc(-c3ccncc3-c3ccc(C(=O)N4CCN(C)CC4)cc3)cs2)c1`, the pIC50 in test [1] is below 4.40; in test [3], 4.89. In addition, the “Ratio IC50” value in test [2] is recorded as above 3.1. For the same compound, the IC50 in test [3] is 12.9 µM.
For the compound `Cc1cccc(Nc2nnc(-c3ccncc3)o2)c1`, the pIC50 in test [1] and in test [3] was below 4.40 throughout. Further, the IC50 in test [3] was 40.7 µM.
As to `OCc1sc(Nc2ccccc2)nc1-c1ccncc1`, the IC50 in test [3] is 30.2 µM.
On to `Cc1cccc(Nc2nc(-c3ccnc(-c4cccc5[nH]ccc45)c3)cs2)c1`, for which the pIC50 in test [1] is 5.35; in test [3], 5.51. Moreover, the “Ratio IC50” value in test [2] is 1.5. Also, the IC50 in test [3] is 3.16 µM.
Regarding `Cc1cccc(Nc2nc(-c3ccncc3Br)cs2)c1`, in test [3], the IC50 was 3.98 µM.
Turning to `Cc1cccc(Nc2nc(-c3ccnc(N4CCN(C)CC4)c3)cs2)c1`, the pIC50 was 4.50 in test [1] and 4.94 in test [3]. The “Ratio IC50” value in test [2] is given as 2.8. Besides, the IC50 in test [3] is 11.7 µM.
Consider `Brc1cccc(Nc2nc(-c3ccncc3)cs2)c1`, for which the IC50 in test [3] is 40.7 µM.
The same measure, in the same setting: next, `Oc1cccc(Nc2nc(-c3ccncc3)cs2)c1`: 28.8 µM.
In test [1], `Cc1cccc(Nc2nc(-c3ccncc3-c3ccncc3)cs2)c1` gave a negative-log IC50 (pIC50) of 4.47. Besides, the “Ratio IC50” value in test [2] was 2.5. Besides, in test [3], the pIC50 is 4.86 and the IC50 is 13.8 µM.
Taken in the same sequence, the figures for `Cc1cccc(Nc2nc(-c3ccncc3NCCN3CCOCC3)cs2)c1` were 4.55, 1.4, 4.71 and 19.5 µM.
As for `Cc1cccc(Nc2nccc(-c3ccncc3)n2)c1`, in test [1], the pIC50 is 5.07. Moreover, the “Ratio IC50” value in test [2] worked out at 1.3. In test [3], the pIC50 is 5.19 and the IC50 is 6.61 µM.
As for `COc1ccccc1Nc1nc(-c2ccncc2)cs1`, in test [3], the IC50 is 33.9 µM.
On the same count and under the same terms, next, `Cc1cccc(Nc2nc(-c3ccncc3Cl)cs2)c1`: 2.95 µM.
In turn, `Cc1cccc(Nc2nc(-c3ccncc3)n[nH]2)c1` showed a pIC50 in test [1] of 4.65. Further, the “Ratio IC50” value in test [2] was found to be 0.8. For the same compound, in test [3], the pIC50 is 4.54 and the IC50 was 28.8 µM.
For `COc1cccc(Nc2nc(-c3ccncc3)cs2)c1`, the IC50 in test [3] is 3.02 µM.
With `Oc1ccc(Nc2nc(-c3ccncc3)cs2)cc1`, in test [3], the IC50 is 5.37 µM.
Still for that read-out and setting: then `Fc1ccccc1Nc1nc(-c2ccncc2)cs1`, with 14.5 µM; and `FC(F)(F)c1ccccc1Nc1nc(-c2ccncc2)cs1`, with 40.7 µM; and `c1cc(-c2csc(Nc3ccc4c(c3)CCC4)n2)ccn1`, with 2.04 µM.
As for `Cc1cccc(Nc2nc(-c3ccnc(Br)c3)cs2)c1`, the IC50 in test [3] is 2.04 µM.
Consider `Cc1cccc(Nc2nc(-c3ccnc(C)c3)cs2)c1`, for which the IC50 in test [3] is 28.8 µM.
For the compound `Cc1cccc(Nc2cc(-c3ccncc3)ncn2)c1`, in test [1], the pIC50 is 4.55. In addition, the “Ratio IC50” value in test [2] came to 1.2. Moreover, in test [3], the negative-log IC50 (pIC50) is 4.64 and the IC50 was 23.4 µM.
In the case of `Cc1cccc(Nc2nc(-c3ccnc(CCCO)c3)cs2)c1`, the IC50 in test [3] was 5.25 µM.
The same measure, in the same setting: next, `CC(C)(C)c1cccc(Nc2nc(-c3ccncc3)cs2)c1`: 60.3 µM; `Cc1ccc(Nc2nc(-c3ccncc3)cs2)cc1`: 2.51 µM.
On the same count and under the same terms, next, `CN(C)CCOc1ccc(Nc2nc(-c3ccncc3)cs2)cc1`: 60.3 µM; `Cc1cccc(Nc2nc(-c3ccncc3)c(CN(C)C)s2)c1`: 16.2 µM.
With `Cc1cccc(Nc2nc(-c3ccncc3-c3ccc(C(C)C)cc3)cs2)c1`, the pIC50 in test [1] was below 4.40. In addition, in test [3], the negative-log IC50 (pIC50) is below 4.40 and the IC50 is 40.7 µM.
As for `COc1ccc(Nc2nc(-c3ccncc3)cs2)cc1`, the IC50 in test [3] is 14.1 µM.
Consider `CCc1cnccc1-c1csc(Nc2cccc(C)c2)n1`, for which the IC50 in test [3] was 6.31 µM.
On the same count and under the same terms, then `Cc1cccc(Nc2nc(-c3ccncc3)c(C(N)=O)s2)c1`, with 19.5 µM.
For `Clc1ccc(Nc2nc(-c3ccncc3)cs2)cc1Cl`, in test [3], the IC50 is 13.8 µM.
`Cc1cccc(Nc2nc(-c3ccncc3-c3cn(Cc4ccccc4)nn3)cs2)c1`: in test [1], the pIC50 is below 4.40. Also, in test [3], the pIC50 is below 4.40 and the IC50 was 40.7 µM.
Consider `Cc1cccc(Nc2nc(-c3ccnc(-c4cccc(F)n4)c3)cs2)c1`, for which the pIC50 in test [1] and in test [3] was below 4.40 each time. Further, in test [3], the IC50 was above 40 µM.
As for `CCc1cccc(Nc2nc(-c3ccncc3)cs2)c1`, in test [3], the IC50 is 2.51 µM.
Consider `COC(=O)C=CC(=O)c1sc(Nc2cccc(C)c2)nc1-c1ccncc1`, for which, in test [3], the IC50 is 2.51 µM.
Same read-out and setting: next, `Clc1ccc(Nc2nc(-c3ccncc3)cs2)cc1`: 38 µM.
The same measure, in the same setting: then `Clc1cccc(Nc2nc(-c3ccncc3)cs2)c1`, with 3.02 µM.
On the same count and under the same terms, next, `CCN(c1cccc(C)c1)c1nc(-c2ccncc2)cs1`: 40.7 µM.
On to `FC(F)(F)c1ccc(Nc2nc(-c3ccncc3)cs2)cc1`, for which, in test [3], the IC50 is 40.7 µM.
On the same count and under the same terms, next, `Cc1cccc(Nc2nc(-c3ccncc3)c(CN3CCCCC3)s2)c1`: 13.2 µM.
Regarding `Cc1cccc(Nc2nc(-c3ccncc3)c[nH]2)c1`, the pIC50 in test [1] was below 4.40. In test [3], the pIC50 was below 4.40 and the IC50 was 40.7 µM.
Take `Cc1cccc(Nc2nc(-c3ccncc3)c(CCCN3CCOCC3)s2)c1`: the IC50 in test [3] was 5.89 µM.
Still for that read-out and setting: then `Cc1cc(C)cc(Nc2nc(-c3ccncc3)cs2)c1`, with 4.57 µM; and `Clc1ccccc1Nc1nc(-c2ccncc2)cs1`, with 28.2 µM; and `Cc1cccc(Nc2nc(-c3ccncc3)c(C)s2)c1`, with 10 µM.
Consider `Oc1ccccc1Nc1nc(-c2ccncc2)cs1`, for which the IC50 in test [3] is 12.9 µM.
`Cc1cccc(Nc2nc(-c3ccncc3-c3ccc(C(N)=O)cc3)cs2)c1` showed a pIC50 in test [1] of 5.80. In test [3], the pIC50 is 5.39 and the IC50 is 4.17 µM.
In the case of `C#Cc1cc(-c2csc(Nc3cccc(C)c3)n2)ccn1`, in test [3], the IC50 was 18.2 µM.
For `Cc1cccc(Nc2nc(-c3ccncc3C)cs2)c1`, the IC50 in test [3] is 5.25 µM.
On to `Cc1sc(Nc2ccc3c(c2)CCC3)nc1-c1ccncc1`, for which the IC50 in test [3] was 12 µM.
As to `Cc1cccc(Nc2nc(-c3ccncc3)c(C(=O)N(C)C)s2)c1`, the IC50 in test [3] is 16.2 µM.
Take `Cc1cccc(Nc2nc(-c3ccncc3CCCO)cs2)c1`: the IC50 in test [3] was 6.92 µM.
On the same count and under the same terms, then `CN(C)CCc1ccc(Nc2nc(-c3ccncc3)cs2)cc1`, with 50.1 µM.
`Cc1cccc(Nc2nc(-c3ccncc3C#CCCCO)cs2)c1`: the pIC50 is 6.52 in test [1] and 5.20 in test [3]. Moreover, the IC50 in test [3] is 6.3 µM.
As for `CC(C)c1cccc(Nc2nc(-c3ccncc3)cs2)c1`, the IC50 in test [3] is 17.4 µM.
For `Cc1ccc(Nc2nc(-c3ccncc3)cs2)cc1C`, the IC50 in test [3] is 6.61 µM.
On the same count and under the same terms, next, `Cc1cccc(Nc2nc(-c3cc(Cl)nc(Cl)c3)cs2)c1`: 15.1 µM.
On the same count and under the same terms, then `COc1ccc(Nc2nc(-c3ccncc3)cs2)cc1OC`, with 24.5 µM.
As for `Fc1ccc(Nc2nc(-c3ccncc3)cs2)cc1`, the IC50 in test [3] was 6.03 µM.
The same measure, in the same setting: next, `Cc1cccc(Nc2nc(-c3ccnc(F)c3)cs2)c1`: 4.57 µM; `OCCc1ccc(Nc2nc(-c3ccncc3)cs2)cc1`: 5.01 µM.
`Cc1cccc(Nc2nnc(-c3ccncc3)n2C)c1`: the pIC50 in test [1] is below 4.40. Besides, in test [3], the pIC50 is below 4.40 and the IC50 is 40.7 µM.
For `Cc1cccc(Nc2nc(-c3ccncc3)c(CCCO)s2)c1`, in test [3], the IC50 is 3.63 µM.

These data come from ChEMBL document CHEMBL1817609, “SAR studies of 4-pyridyl heterocyclic anilines that selectively induce autophagic cell death in von Hippel-Lindau-deficient renal cell carcinoma cells” (Bioorg Med Chem, 2011).
